Results published in ChEMBL document CHEMBL4715706, “Discovery of Benzotriazolo[4,3-d][1,4]diazepines as Orally Active Inhibitors of BET Bromodomains” (ACS Med Chem Lett, 2016).
Calls of active or inactive are those of the source. The calls are words filed in the database; no cut-off is given here.

Legend:
[1] = target: T1, Bromodomain-containing protein 3 (Homo sapiens, UniProt Q15059); assay: Inhibition of BRD3 BD1 (unknown origin) using biotinylated JQ1 analog as substrate measured after 20 mins by AlphaLISA assay
[2] = Protein binding in rat plasma; type: ADME, cell-free; settings: read-out: PPB (converted)
[3] = target: T2, Bromodomain testis-specific protein (Homo sapiens, UniProt Q58F21); assay: Inhibition of BRDT BD2 (unknown origin) using biotinylated JQ1 analog as substrate measured after 20 mins by AlphaLISA assay
[4] = Intrinsic clearance in human liver microsomes
[5] = target: T2, Bromodomain testis-specific protein; assay: Inhibition of BRDT BD1 (unknown origin) using biotinylated JQ1 analog as substrate measured after 20 mins by AlphaLISA assay
[6] = target: T3, Bromodomain-containing protein 4 (Homo sapiens, UniProt O60885)
Description: Inhibition of His/FLAG-tagged BRD4 BD1 (unknown origin) using histone H4-TetraAcetylated-biotin peptide as substrate incubated for 20 mins by AlphaLISA assay

[7] = Intrinsic clearance in dog liver microsomes
[8] = Intrinsic clearance in mouse liver microsomes
[9] = Clearance in rat at 1 mg/kg, iv; type: ADME, organism-based; settings: in vivo
[10] = target: Bromodomain-containing protein 2 (Homo sapiens, UniProt P25440); assay: Inhibition of BRD2 BD1 (unknown origin) using biotinylated JQ1 analog as substrate measured after 20 mins by AlphaLISA assay
[11] = target: T3, Bromodomain-containing protein 4; assay: Inhibition of BRD4 BD2 (unknown origin) using biotinylated JQ1 analog as substrate measured after 20 mins by AlphaLISA assay
[12] = target: T4, Bromodomain-containing protein 1 (Homo sapiens, UniProt O95696); assay: Inhibition of BRD1 (unknown origin) measured after 70 mins by TR-FRET assay
T4 sequence (O95696 whole entry): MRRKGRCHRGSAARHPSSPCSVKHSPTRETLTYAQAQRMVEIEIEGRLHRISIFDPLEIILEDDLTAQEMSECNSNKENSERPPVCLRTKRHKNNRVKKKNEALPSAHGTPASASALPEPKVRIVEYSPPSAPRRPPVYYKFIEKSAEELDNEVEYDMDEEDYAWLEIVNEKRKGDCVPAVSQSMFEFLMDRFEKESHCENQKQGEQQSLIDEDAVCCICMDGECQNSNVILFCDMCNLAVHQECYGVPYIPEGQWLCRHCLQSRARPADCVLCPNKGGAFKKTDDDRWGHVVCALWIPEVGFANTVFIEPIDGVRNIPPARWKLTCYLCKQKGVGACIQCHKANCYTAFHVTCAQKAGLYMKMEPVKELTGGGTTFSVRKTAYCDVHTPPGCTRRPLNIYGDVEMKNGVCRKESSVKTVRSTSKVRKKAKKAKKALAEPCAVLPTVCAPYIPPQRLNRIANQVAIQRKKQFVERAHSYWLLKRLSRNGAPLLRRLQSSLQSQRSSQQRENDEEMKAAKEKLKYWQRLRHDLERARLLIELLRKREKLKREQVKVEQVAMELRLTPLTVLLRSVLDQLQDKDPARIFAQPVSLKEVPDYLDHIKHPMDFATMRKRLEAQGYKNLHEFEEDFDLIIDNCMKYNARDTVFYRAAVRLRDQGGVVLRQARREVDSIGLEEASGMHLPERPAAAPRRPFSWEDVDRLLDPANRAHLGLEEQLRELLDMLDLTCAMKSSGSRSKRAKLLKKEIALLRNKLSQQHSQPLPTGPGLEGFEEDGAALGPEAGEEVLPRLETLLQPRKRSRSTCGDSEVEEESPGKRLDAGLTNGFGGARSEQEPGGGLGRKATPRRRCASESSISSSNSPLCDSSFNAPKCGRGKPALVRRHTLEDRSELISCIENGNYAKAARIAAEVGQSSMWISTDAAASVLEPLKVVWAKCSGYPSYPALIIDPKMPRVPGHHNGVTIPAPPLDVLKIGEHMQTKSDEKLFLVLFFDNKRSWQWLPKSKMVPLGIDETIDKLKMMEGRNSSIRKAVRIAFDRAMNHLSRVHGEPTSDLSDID

[13] = Cmax in rat at 10 mg/kg, po; type: ADME, organism-based; set-up: route oral, dose 10 mg/kg; settings: in vivo
[14] = Inhibition of BET in human THP-1 cells assessed as suppression of LPS-induced IL-6 release measured after 16 hrs by chemiluminescence ELISA; type: cell-based; settings: THP-1, 16 h
Mus musculus = assay: In vivo inhibition of BET in BALB/c mouse assessed as suppression of LPS-induced IL-6 level in plasma at 15 mg/kg, po pretreated with compound followed by LPS challenge and measured after 2 hrs by ELISA; type: functional, organism-based
[15] = Intrinsic clearance in rat liver microsomes
[16] = target: SWI/SNF-related matrix-associated actin-dependent regulator of chromatin subfamily A member 4 (Homo sapiens, UniProt P51532); assay: Inhibition of His-tagged BRG1 (unknown origin) using biotinylated acetylated peptide as substrate measured after 20 mins by AlphaLISA assay
[17] = target: T1, Bromodomain-containing protein 3; assay: Inhibition of BRD3 BD2 (unknown origin) using biotinylated JQ1 analog as substrate measured after 20 mins by AlphaLISA assay
[18] = Half life in rat at 1 mg/kg, iv; type: ADME, organism-based; settings: in vivo

T1 sequence (Q15059 whole entry): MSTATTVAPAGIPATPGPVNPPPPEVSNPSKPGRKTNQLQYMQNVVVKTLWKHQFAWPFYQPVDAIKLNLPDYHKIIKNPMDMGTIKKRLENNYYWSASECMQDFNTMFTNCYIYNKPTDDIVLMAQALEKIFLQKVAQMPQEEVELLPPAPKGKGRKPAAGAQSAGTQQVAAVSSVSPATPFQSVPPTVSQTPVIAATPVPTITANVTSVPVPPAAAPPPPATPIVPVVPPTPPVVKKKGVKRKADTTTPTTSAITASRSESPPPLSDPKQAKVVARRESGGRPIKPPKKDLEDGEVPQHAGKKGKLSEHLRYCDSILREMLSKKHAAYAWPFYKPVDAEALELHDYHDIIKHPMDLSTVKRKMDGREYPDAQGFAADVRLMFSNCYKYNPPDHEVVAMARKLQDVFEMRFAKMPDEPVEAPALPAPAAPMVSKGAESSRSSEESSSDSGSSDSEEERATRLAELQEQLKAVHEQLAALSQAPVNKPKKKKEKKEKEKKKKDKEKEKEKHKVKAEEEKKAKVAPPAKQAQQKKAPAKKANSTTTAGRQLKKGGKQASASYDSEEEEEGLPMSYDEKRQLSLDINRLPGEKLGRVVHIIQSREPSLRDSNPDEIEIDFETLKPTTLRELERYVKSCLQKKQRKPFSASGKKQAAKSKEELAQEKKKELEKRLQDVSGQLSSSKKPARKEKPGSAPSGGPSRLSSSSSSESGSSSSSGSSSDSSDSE
Sequence of SWI/SNF-related matrix-associated actin-dependent regulator of chromatin subfamily A member 4 (P51532 whole entry): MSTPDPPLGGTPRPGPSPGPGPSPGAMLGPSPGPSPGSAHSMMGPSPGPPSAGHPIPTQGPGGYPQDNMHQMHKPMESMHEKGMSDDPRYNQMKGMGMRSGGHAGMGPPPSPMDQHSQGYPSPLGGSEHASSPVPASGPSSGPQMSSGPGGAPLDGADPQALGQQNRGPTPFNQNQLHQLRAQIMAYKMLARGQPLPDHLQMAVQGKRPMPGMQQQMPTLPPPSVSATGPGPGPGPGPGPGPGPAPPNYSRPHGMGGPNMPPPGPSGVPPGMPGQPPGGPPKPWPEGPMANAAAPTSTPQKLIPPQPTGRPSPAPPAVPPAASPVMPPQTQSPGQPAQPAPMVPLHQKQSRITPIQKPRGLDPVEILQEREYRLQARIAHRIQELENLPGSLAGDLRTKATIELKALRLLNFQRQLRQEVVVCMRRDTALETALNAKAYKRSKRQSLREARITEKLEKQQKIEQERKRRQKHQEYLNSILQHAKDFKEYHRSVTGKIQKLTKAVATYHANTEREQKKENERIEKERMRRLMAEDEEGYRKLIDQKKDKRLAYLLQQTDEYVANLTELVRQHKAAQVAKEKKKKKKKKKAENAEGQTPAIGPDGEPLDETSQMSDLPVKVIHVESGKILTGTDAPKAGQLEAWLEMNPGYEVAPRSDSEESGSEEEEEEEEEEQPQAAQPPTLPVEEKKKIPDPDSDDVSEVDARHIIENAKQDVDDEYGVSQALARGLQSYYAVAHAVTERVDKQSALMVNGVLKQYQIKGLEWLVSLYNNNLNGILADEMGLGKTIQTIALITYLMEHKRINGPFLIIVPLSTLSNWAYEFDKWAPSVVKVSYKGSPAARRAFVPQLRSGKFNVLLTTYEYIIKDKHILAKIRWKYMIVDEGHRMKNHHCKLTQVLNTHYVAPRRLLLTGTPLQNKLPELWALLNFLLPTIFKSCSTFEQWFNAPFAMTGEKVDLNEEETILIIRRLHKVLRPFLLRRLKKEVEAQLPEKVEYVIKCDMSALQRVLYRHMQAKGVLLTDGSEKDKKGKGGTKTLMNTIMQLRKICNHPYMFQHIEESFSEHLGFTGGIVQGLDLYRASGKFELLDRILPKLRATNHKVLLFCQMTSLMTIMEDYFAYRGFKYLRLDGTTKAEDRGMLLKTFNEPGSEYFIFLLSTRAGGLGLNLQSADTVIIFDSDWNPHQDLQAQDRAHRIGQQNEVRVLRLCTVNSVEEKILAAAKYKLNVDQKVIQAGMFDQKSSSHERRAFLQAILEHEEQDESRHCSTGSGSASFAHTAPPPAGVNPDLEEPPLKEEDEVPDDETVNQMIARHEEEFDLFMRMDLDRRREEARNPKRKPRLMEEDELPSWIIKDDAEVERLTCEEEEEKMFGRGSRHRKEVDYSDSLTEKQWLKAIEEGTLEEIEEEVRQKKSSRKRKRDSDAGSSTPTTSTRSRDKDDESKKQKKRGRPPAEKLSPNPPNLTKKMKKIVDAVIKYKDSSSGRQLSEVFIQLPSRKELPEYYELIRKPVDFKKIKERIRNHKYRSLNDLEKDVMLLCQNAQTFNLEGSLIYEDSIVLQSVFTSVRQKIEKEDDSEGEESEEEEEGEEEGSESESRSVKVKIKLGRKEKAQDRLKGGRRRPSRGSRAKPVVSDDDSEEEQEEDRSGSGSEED
Sequence of Bromodomain-containing protein 2 (P25440 whole entry): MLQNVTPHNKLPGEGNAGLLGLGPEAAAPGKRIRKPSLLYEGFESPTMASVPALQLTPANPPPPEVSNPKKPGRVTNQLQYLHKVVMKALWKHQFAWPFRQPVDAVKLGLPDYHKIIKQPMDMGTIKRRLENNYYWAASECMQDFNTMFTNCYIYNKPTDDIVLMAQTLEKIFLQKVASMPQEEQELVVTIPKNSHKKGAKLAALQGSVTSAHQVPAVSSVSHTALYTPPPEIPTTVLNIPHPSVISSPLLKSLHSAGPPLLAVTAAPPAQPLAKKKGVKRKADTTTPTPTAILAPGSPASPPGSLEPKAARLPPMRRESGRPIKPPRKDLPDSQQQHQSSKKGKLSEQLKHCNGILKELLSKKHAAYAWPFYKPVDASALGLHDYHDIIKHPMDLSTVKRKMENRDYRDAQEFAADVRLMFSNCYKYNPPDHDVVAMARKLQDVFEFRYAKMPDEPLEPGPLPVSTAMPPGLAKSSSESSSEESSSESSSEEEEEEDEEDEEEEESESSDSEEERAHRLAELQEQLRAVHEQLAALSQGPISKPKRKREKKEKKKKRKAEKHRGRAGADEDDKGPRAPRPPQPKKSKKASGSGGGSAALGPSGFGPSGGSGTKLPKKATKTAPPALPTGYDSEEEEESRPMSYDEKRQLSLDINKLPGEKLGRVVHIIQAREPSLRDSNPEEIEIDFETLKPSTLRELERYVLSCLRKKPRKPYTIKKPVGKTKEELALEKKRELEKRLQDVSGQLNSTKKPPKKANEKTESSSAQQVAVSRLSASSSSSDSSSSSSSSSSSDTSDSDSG

`Cc1nnc2n1-c1ccc(-c3ccc(N)nc3)cc1N(c1ccc(Cl)cc1)C[C@H]2C` showed an IC50 [1] of 3 nM, a fraction unbound [2] of 0.04 and an IC50 [3] of 3 nM. The microsomal CLint [4] was 5.1 µL/min/mg, the IC50 [5] was 3 nM and the IC50 [6] was 15 nM. It also gave a microsomal CLint [7] of 19 µL/min/mg, a microsomal CLint [8] of 16 µL/min/mg and a clearance [9] of 63.3 mL/min/kg. The IC50 [10] was 3 nM, the IC50 [11] was 3 nM and the IC50 [12] was > 15000 nM. The Cmax [13] was 290 nM, the EC50 [14] was 13 nM and the inhibition (Mus musculus) was “Active”. For the same compound, the microsomal CLint [15] was 26 µL/min/mg, the IC50 [16] was > 15000 nM and the IC50 [17] was 3 nM. It also gave a half-life [18] of 40.2 min.
